Experiments:
GSK3β = GSK3β (Homo sapiens, UniProt P49841); test: In vitro kinase TR-FRET assay GSK3β; assay type: biochemical; details: enzyme 0.6 nM, ATP 7.6 μM
Method: (§1) In vitro kinase TR-FRET assays: CDK2/CycA2, CDK2/CycE1, CDK1/cyclinB and GSK3β
(§2) The test compounds were prepared as 10 mM stock solution in 100% DMSO. The stock solution was then serially diluted 3-fold in 100% DMSO to 10 concentrations. 200 nL of each diluted compound solution was transferred to 384-well plate in duplicate. To each well, 5 uL of enzyme and ATP mixture solution containing enzyme CDK2/CycA2, CDK2/CycE1, CDK1/cyclinB, or GSK30 (final concentrations 3 nM, 0.6 nM, 0.3 nM, 0.6 nM, respectively) and ATP (final concentrations 27 μM, 82 μM, 56 μM, 7.6 μM, respectively) in the assay buffer (50 mM HEPES, pH7.5, 10 mM MgCl2, 1 mM DTT, 0.01% BSA, 0.01% Triton X-100). For negative control, 5 uL of assay buffer was added instead. The plate was incubated at room temperature for 10 min. 5 uL of peptide solution containing ULight-4E-BP1 peptide (final concentrations 50 nM) in the assay buffer was subsequently added into each well to initiate the reaction. By incubation at room temperature for 1 hour, 10 uL of 2 nM Eu-anti-phospho-4E BP1 antibody was then added for detection. After one hour incubation at room temperature, all samples were subjected to read the TR-FRET signal on Envision with excitation at 340 nm and emission fluorescence at 615 nm and 665 nm. IC50 values were then calculated by plotting dose-response curves and then using the XLfit application in Excel software.

OVCAR3 = test: Cell proliferation (CyQUANT) OVCAR3; assay type: cell-based; details: Homo sapiens, OVCAR-3, 168 h, OVCAR3, 7 days, read-out: Anti-proliferation assay: IC50 (nM) [Cell Line: OVCAR3]
Method: (§3) Cancer cell lines, namely, OVCAR3, TOV21G were seeded onto 96 well cell culture plates at a density of 2500, 1000 or 3000 cells/well, respectively and cultured overnight. Cells treated with test compounds at 3-fold dose titration for 7 days at maximum final DMSO concentration of 0.01%. The CyQUANT® Cell Proliferation Assay, a highly sensitive fluorescence-based method for quantifying cells and assessing cell proliferation and cytotoxicity was employed, following manufacturer's procedure (ThermnoFisher, Cataloge #C35012). Plates were scanned with a laser-based Acumen Cellistra instrument by TTP LabTech at Ex/Em 480/520 nm. % Inhibition is calculated based on DMSO control wells on the same plate (ie, DMSO wells have 100% growth and 0% growth inhibition).

CDK2/CycE1 = CDK2/CycE1 (Homo sapiens, UniProt P24941); test: In vitro kinase TR-FRET assay CDK2/CycE1; assay type: biochemical; details: enzyme 0.6 nM, ATP 82 μM, read-out: CDK2 cyclinE1 activity assay: IC50
Method: as §1, §2

TOV21G = test: Cell proliferation (CyQUANT) TOV21G; assay type: cell-based; details: Homo sapiens, 168 h, 7 days, read-out: Anti-proliferation assay: IC50 (nM) [Cell Line: TOV21G]
Method: as §3

CDK1/cyclinB = CDK1/cyclinB (Homo sapiens, UniProt P06493); test: In vitro kinase TR-FRET assay CDK1/cyclinB; assay type: biochemical; details: enzyme 0.3 nM, ATP 56 μM
Method: as §1, §2

CDK2/CycA2 = CDK2/CycA2 (Homo sapiens, UniProt P24941); test: In vitro kinase TR-FRET assay CDK2/CycA2; assay type: biochemical; details: enzyme 3 nM, ATP 27 μM, read-out: CDK2 cyclinA2 activity assay: IC50
Method: as §1, §2

Chain of CDK1/cyclinB (P06493 whole entry): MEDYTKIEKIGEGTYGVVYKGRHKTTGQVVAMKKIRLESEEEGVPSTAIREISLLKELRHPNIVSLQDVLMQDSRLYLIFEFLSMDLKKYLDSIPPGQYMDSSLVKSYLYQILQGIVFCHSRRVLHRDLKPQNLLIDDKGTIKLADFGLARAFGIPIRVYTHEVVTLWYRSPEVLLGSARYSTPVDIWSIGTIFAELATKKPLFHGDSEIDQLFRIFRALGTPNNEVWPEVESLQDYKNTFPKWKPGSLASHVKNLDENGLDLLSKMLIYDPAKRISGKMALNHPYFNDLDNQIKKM
Chain of CDK1/cyclinB (P14635 whole entry partner): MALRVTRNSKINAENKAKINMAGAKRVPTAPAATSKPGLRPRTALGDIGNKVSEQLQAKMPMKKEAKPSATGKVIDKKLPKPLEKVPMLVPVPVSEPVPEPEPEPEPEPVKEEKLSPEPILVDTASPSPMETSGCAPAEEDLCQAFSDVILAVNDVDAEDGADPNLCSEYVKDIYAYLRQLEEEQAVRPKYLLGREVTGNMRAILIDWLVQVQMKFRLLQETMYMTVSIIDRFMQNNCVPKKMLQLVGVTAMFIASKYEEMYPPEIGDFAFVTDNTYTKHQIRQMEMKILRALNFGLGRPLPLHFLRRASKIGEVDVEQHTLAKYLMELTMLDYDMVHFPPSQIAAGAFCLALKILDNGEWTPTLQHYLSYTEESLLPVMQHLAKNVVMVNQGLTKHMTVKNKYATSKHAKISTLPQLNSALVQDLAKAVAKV
Chain of GSK3β (P49841 whole entry, species assumed): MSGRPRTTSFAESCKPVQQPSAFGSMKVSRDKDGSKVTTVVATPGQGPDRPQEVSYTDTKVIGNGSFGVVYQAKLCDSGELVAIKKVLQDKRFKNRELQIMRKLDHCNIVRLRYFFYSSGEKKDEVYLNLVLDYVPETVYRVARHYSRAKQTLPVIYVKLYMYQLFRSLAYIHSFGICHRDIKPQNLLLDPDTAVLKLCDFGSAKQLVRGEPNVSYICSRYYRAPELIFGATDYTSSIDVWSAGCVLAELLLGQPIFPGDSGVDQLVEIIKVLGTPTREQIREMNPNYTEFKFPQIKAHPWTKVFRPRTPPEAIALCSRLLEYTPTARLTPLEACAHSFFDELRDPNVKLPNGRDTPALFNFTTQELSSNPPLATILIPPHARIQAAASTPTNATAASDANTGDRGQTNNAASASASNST

Row | IC50 (GSK3β) | IC50 (OVCAR3) | IC50 (CDK2/CycE1) | IC50 (CDK1/cyclinB) | IC50 (CDK2/CycA2) | SMILES | IC50 (TOV21G)
1 | 0.05 to 0.5 µM | ≤ 500 nM | < 0.05 µM | 0.05 to 0.5 µM | < 0.05 µM | CC(C)NC(=O)O[C@@H]1CC[C@H](c2cc(Nc3ccc(F)c4c3CCS4(=O)=O)n[nH]2)C1 [Example 50, (1R,3S)-3-{5-[(7-fluoro-1,1-dioxo-2,3-dihydro-1λ^6-benzothiophen-4-yl)amino]-2H-pyrazol-3-yl}cyclopentyl (prop-2-ylamino)methanoate] | ≤ 500 nM
2 | > 1 µM | ≤ 500 nM | < 0.05 µM | 0.05 to 0.5 µM | < 0.05 µM | CC(C)NC(=O)O[C@@H]1CC[C@H](c2cc(Nc3ccc4c(c3F)CCS4(=O)=O)n[nH]2)C1 [Example 60, (1R,3S)-3-(3-((4-fluoro-1,1-dioxido-2,3-dihydrobenzo[b]thiophen-5-yl)amino)-1H-pyrazol-5-yl)cyclopentyl isopropylcarbamate] | ≥ 1000 nM
3 | 0.5 to 1 µM | ≤ 500 nM | < 0.05 µM | 0.05 to 0.5 µM | < 0.05 µM | CC(C)NC(=O)O[C@@H]1CC[C@H](c2cc(Nc3ccc4c(c3)N(C)S(=O)(=O)C4)n[nH]2)C1 [Example 41, (1R,3S)-3-{5-[(1-methyl-2,2-dioxo-1,3-dihydro-2X^6-benzo[2,1-c][1,2]thiazol-6-yl)amino]-2H-pyrazol-3-yl}cyclopentyl (prop-2-ylamino)methanoate] | ≤ 500 nM
4 | 0.5 to 1 µM | ≥ 1000 nM | < 0.05 µM | > 1 µM | < 0.05 µM | CC(C)NC(=O)O[C@@H]1CC[C@H](c2cc(Nc3ccc4c(c3)C(=O)NS4(=O)=O)[nH]n2)C1 [Example 5, (1R,3S)-3-(5-((1,1-dioxido-3-oxo-2,3-dihydrobenzo[d]isothiazol-5-yl)amino)-1H-pyrazol-3-yl)cyclopentyl isopropylcarbamate] | ≥ 1000 nM
5 | 0.05 to 0.5 µM | ≤ 500 nM | < 0.05 µM | < 0.05 µM | < 0.05 µM | CC(C)NC(=O)O[C@@H]1CC[C@H](c2cc(Nc3ccc4c(c3)S(=O)(=O)NC4)n[nH]2)C1 [Example 17, (1R,3S)-3-(3-((1,1-dioxido-2,3-dihydrobenzo[d]isothiazol-6-yl)amino)-1H-pyrazol-5-yl)cyclopentyl isopropylcarbamate] | ≤ 500 nM
6 | > 1 µM | ≤ 500 nM | < 0.05 µM | < 0.05 µM | < 0.05 µM | CC(C)NC(=O)O[C@@H]1CC[C@H](c2cc(Nc3ccc4c(c3)NS(=O)(=O)C4)n[nH]2)C1 [Example 38, (1R,3S)-3-(3-((2,2-dioxido-1,3-dihydrobenzo[c]isothiazol-6-yl)amino)-1H-pyrazol-5-yl)cyclopentyl isopropylcarbamate] | ≥ 1000 nM
7 | 0.5 to 1 µM | ≤ 500 nM | < 0.05 µM | 0.05 to 0.5 µM | < 0.05 µM | CC(C)NC(=O)O[C@@H]1CC[C@H](c2cc(Nc3ccc(Cl)c4c3CCCS4(=O)=O)n[nH]2)C1 [Example 58, (1R,3S)-3-(3-((8-chloro-1,1-dioxidothiochroman-5-yl)amino)-1H-pyrazol-5-yl)cyclopentyl isopropylcarbamate] | ≥ 1000 nM
8 | 0.05 to 0.5 µM | ≤ 500 nM | < 0.05 µM | < 0.05 µM | < 0.05 µM | CC(C)NC(=O)O[C@@H]1CC[C@H](c2cc(Nc3ccc4c(c3)C(C)NS4(=O)=O)[nH]n2)C1 (stereo partly drawn) [Example 10, (1R,3S)-3-(5-((3-methyl-1,1-dioxido-2,3-dihydrobenzo[d]isothiazol-5-yl)amino)-1H-pyrazol-3-yl)cyclopentyl isopropylcarbamate] | ≥ 1000 nM
9 | > 1 µM | ≤ 500 nM | < 0.05 µM | < 0.05 µM | < 0.05 µM | CC(C)NC(=O)O[C@H]1CC[C@@H](c2cc(Nc3ccc4c(c3)CCNS4(=O)=O)n[nH]2)CC1 [Example 11, (1s,4s)-4-{3-[(1,1-dioxo-3,4-dihydro-2H-1λ^6,2-benzothiazin-6-yl)amino]-1H-pyrazol-5-yl}cyclohexyl N-(propan-2-yl)carbamate] | ≥ 1000 nM
10 | 0.05 to 0.5 µM | ≤ 500 nM | < 0.05 µM | 0.05 to 0.5 µM | < 0.05 µM | CC(C)NC(=O)O[C@@H]1CC[C@H](c2cc(Nc3cccc4c3CCS4(=O)=O)n[nH]2)C1 [Example 36, (1R,3S)-3-(3-((1,1-dioxido-2,3-dihydrobenzo[b]thiophen-4-yl)amino)-1H-pyrazol-5-yl)cyclopentyl isopropylcarbamate] | ≤ 500 nM
11 | > 1 µM | 500 to 1000 nM | < 0.05 µM | 0.05 to 0.5 µM | < 0.05 µM | CC(C)NC(=O)O[C@H]1CC[C@@H](c2cc(Nc3nccc4c3CCS4(=O)=O)n[nH]2)CC1 [Example 69, (1s,4s)-4-{5-[(1,1-dioxo-2,3-dihydro-1λ^6-thieno[3,2-c]pyridin-4-yl)amino]-1H-pyrazol-3-yl}cyclohexyl (prop-2-ylamino)methanoate] | ≥ 1000 nM
12 | 0.05 to 0.5 µM | 500 to 1000 nM | < 0.05 µM | 0.05 to 0.5 µM | < 0.05 µM | CC(C)NC(=O)O[C@@H]1CC[C@H](c2cc(Nc3ccc4c(c3)C(=O)NC4=O)n[nH]2)C1 [Example 4, (1R,3S)-3-(3-((1,3-dioxoisoindolin-5-yl)amino)-1H-pyrazol-5-yl)cyclopentyl isopropylcarbamate] | ≥ 1000 nM

Row | SMILES | IC50 (GSK3β) | IC50 (OVCAR3) | IC50 (CDK2/CycE1) | IC50 (CDK1/cyclinB) | IC50 (CDK2/CycA2) | IC50 (TOV21G)
13 | CC(C)NC(=O)O[C@H]1CC[C@@H](c2cc(Nc3ccc4c(c3)S(=O)(=O)CC4)n[nH]2)CC1 [Example 27, (1s,4s)-4-{5-[(1,1-dioxo-2,3-dihydro-1λ^6-benzo[b]thiophen-6-yl)amino]-2H-pyrazol-3-yl}cyclohexyl (prop-2-ylamino)methanoate] | > 1 µM | ≥ 1000 nM | < 0.05 µM | 0.05 to 0.5 µM | < 0.05 µM | ≥ 1000 nM
14 | CC(C)NC(=O)O[C@H]1CC[C@@H](c2cc(Nc3ccc4c(c3)CS(=O)(=O)C4)n[nH]2)CC1 [Example 33, (1s,4s)-4-(3-((2,2-dioxido-1,3-dihydrobenzo[c]thiophen-5-yl)amino)-1H-pyrazol-5-yl)cyclohexyl isopropylcarbamate] | > 1 µM | ≤ 500 nM | < 0.05 µM | < 0.05 µM | < 0.05 µM | ≤ 500 nM
15 | CC(C)NC(=O)O[C@@H]1CC[C@H](c2cc(Nc3ccc4c(c3)CCC4=O)n[nH]2)C1 [Example 25, (1R,3S)-3-{5-[(1-oxo-2,3-dihydro-1H-inden-5-yl)amino]-2H-pyrazol-3-yl}cyclopentyl (prop-2-ylamino)methanoate] | 0.05 to 0.5 µM | ≤ 500 nM | < 0.05 µM | 0.05 to 0.5 µM | < 0.05 µM | ≥ 1000 nM
16 | CC(C)NC(=O)O[C@@H]1CC[C@H](c2cc(Nc3ccc4c(c3)C(C#N)CC4)n[nH]2)C1 (stereo partly drawn) [Example 31, (1R,3S)-3-{5-[(3-cyano-2,3-dihydro-1H-inden-5-yl)amino]-2H-pyrazol-3-yl}cyclopentyl (prop-2-ylamino)methanoate] | 0.05 to 0.5 µM | ≤ 500 nM | < 0.05 µM | 0.05 to 0.5 µM | < 0.05 µM | ≤ 500 nM

Source: US20240246950A1, “Anilino-Pyrazole Derivatives, Compositions and Methods Thereof” (Ensem Therapeutics, priority 2022, published 2024)
